Data from patent US9981969B2, “Imidazole derivatives and methods of use thereof for improving the pharmacokinetics of a drug” (MERCK SHARP & DOHME CORP., priority 2013, dated 2018).

Legend:
CYP3A4 = molecular target: T1, CYP3A4 (Homo sapiens, UniProt P08684); assay: Cocktail assay for CYPs in human liver microsomes, midazolam 1′-hydroxylation (3A4); assay type: biochemical; details: 2 μM midazolam, 10 min at 37° C.
T1 construct: 0.1 mg/mL protein human liver microsomes (BD Gentest); tissue BD Gentest; host or cells: human liver microsomes
T1 sequence (P08684 whole entry): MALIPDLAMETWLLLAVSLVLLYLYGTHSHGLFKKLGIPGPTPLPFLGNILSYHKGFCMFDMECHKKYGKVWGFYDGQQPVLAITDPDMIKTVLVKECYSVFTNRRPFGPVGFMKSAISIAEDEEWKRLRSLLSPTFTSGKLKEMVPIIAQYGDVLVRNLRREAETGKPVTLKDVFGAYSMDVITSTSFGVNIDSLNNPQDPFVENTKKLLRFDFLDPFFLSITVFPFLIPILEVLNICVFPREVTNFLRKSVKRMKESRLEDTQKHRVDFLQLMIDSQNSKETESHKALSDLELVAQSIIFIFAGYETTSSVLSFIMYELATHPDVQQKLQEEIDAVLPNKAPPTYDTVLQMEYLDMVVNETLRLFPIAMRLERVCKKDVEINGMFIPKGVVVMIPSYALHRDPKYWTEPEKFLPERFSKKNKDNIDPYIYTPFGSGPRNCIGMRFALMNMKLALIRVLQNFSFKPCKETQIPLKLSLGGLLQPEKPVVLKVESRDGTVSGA
Description: (§1) This assay was performed in a standard 96-well plate design. IC50 values were calculated from the percent inhibition observed for each test compound at 6 concentrations (for example, 0.0032, 0.016, 0.08, 0.4, 2 and 10 μM). The incubation substrate mix contains 10 μM phenacetin (1A2), 5 μM diclofenac (2C9), 30 μM mephenytoin (2C19), 5 μM dextromethorphan (2D6) and 2 μM midazolam (3A4), 0.1 mg/mL protein human liver microsomes (BD Gentest), 1 mM NAPDH, 3.3 mM MgCl2 and 100 mM potassium phosphate buffer (pH 7.4). The production of the metabolite of each probe substrate was determined after incubation for 10 min at 37° C. Quantitation of the metabolite peak area ratio against an internal standard (tolbutamide) was determined by LC/MS/MS analysis following acetonitrile treatment of the incubations.
(§2) Samples were analyzed in the MRM mode with a SCIEX API-4000 mass spectrometer (Applied Biosystems, Foster City, Calif.), with a Shimadzu LC-20 AD pump (Shimadzu corporation, Kyoto, JP) and a CTC PAL autosampler (Agilent Technologies, Switzerland). A Phenomenex, Luna, 5 μm, 100A, 2.00×30 mm HPLC column was used for the separation. The mobile phases were: (A) 0.1% formic acid in water and (B) 0.1% formic acid in acetonitrile. The binary gradient was as follows. AutoSampler: CTC PAL
(§3) The peak area ratio of the analyte to the internal standard was used to quantify the metabolite. The values of peak area ratios in the presence of test compound were compared to those of maximum or minimum controls and were expressed as % inhibition by interpolating between the maximum and minimum peak area ratios. Incubations with no inhibitor were defined as the maxima. The following equation was used to calculate the % inhibition: [1−[(X−Low control)/(High control−Low control)]]*100 For the IC50 calculation, SigmaPlot was used to plot the mean % inhibition versus the test compound concentrations and for non-linear regression analysis of the data. Depending on the range of data points defining the inhibition curve, the data may have been fit to the 4-parameter logistic equation.

CYP1A2 = molecular target: T2, CYP1A2 (Homo sapiens, UniProt P05177); assay: Cocktail assay for CYPs in human liver microsomes, phenacetin O-deethylation (1A2); assay type: biochemical; details: 10 μM phenacetin, 10 min at 37° C.
T2 construct: 0.1 mg/mL protein human liver microsomes (BD Gentest); tissue BD Gentest; host or cells: human liver microsomes
T2 sequence (P05177 1-516): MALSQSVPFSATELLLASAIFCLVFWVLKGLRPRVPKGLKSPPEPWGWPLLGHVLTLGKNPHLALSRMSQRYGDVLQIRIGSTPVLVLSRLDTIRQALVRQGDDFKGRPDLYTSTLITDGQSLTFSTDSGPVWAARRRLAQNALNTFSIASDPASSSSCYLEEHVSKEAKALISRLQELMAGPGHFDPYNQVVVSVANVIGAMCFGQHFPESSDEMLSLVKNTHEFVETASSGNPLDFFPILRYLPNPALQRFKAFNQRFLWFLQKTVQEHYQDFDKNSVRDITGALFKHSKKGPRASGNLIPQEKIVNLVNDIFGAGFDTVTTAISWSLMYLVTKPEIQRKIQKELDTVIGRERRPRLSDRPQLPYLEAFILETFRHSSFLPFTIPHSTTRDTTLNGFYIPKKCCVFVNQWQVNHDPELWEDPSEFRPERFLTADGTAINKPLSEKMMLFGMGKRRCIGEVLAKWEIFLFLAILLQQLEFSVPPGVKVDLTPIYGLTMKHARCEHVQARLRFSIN
Description: as §1, §2, §3

CYP2C9 = molecular target: T3, CYP2C9 (Homo sapiens, UniProt P11712); assay: Cocktail assay for CYPs in human liver microsomes, diclofenac 4′-hydroxylation (2C9); assay type: biochemical; details: 5 μM diclofenac, 10 min at 37° C.
T3 construct: 0.1 mg/mL protein human liver microsomes (BD Gentest); tissue BD Gentest; host or cells: human liver microsomes
T3 sequence (P11712 whole entry): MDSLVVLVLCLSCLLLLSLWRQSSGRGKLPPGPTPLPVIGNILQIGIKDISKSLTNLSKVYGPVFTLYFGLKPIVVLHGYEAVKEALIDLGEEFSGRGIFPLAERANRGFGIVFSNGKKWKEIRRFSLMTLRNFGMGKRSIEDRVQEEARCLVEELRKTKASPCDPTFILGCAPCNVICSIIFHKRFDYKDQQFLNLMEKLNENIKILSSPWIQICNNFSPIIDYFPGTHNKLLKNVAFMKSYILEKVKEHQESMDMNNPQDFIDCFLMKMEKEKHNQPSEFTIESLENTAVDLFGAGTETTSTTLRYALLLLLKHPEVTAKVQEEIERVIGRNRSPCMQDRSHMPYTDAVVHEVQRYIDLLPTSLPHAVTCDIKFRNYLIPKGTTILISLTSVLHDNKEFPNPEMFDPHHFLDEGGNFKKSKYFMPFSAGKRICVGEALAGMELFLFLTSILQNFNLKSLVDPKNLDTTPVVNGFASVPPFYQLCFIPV
Description: as §1, §2, §3

CYP2C19 = molecular target: T4, CYP2C19 (Homo sapiens, UniProt P33261); assay: Cocktail assay for CYPs in human liver microsomes, mephenytoin 4′-hydroxylation (2C19); assay type: biochemical; details: 30 μM mephenytoin, 10 min at 37° C.
T4 construct: 0.1 mg/mL protein human liver microsomes (BD Gentest); tissue BD Gentest; host or cells: human liver microsomes
T4 sequence (P33261 whole entry): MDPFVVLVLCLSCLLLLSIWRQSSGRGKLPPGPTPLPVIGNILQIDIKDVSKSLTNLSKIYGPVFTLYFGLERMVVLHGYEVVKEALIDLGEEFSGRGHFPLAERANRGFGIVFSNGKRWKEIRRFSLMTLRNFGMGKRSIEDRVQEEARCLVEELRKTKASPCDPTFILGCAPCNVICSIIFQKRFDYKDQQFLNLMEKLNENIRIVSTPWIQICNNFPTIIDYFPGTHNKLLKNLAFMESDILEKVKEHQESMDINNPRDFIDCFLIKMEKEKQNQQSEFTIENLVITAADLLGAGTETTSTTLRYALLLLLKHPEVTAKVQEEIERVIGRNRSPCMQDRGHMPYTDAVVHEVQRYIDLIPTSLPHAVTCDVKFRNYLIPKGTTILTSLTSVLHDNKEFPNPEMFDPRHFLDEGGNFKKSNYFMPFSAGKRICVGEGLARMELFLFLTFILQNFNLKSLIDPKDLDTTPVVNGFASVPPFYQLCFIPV
Description: as §1, §2, §3

CYP2D6 = molecular target: T5, CYP2D6 (Homo sapiens, UniProt P10635); assay: Cocktail assay for CYPs in human liver microsomes, dextromethorphan O-demethylation (2D6); assay type: biochemical; details: 5 μM dextromethorphan, 10 min at 37° C.
T5 construct: 0.1 mg/mL protein human liver microsomes (BD Gentest); tissue BD Gentest; host or cells: human liver microsomes
T5 sequence (P10635 whole entry): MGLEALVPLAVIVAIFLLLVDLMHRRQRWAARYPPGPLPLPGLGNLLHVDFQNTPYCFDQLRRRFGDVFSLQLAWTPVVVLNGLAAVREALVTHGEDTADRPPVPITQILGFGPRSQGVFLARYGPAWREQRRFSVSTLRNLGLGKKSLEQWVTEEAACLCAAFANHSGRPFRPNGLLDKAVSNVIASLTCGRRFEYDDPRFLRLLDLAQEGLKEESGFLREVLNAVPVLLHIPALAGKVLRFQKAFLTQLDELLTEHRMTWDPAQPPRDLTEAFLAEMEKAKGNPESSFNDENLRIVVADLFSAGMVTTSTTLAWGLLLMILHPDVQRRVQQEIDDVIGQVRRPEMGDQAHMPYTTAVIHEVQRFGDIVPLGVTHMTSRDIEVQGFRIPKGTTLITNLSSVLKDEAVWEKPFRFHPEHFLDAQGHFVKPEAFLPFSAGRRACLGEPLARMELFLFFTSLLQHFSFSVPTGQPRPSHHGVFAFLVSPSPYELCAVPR
Description: as §1, §2, §3

human CYP11B1 = molecular target: T6, human CYP11B1 (Homo sapiens, UniProt P15538); assay: IC50 vs CYP11B1 by measurement of cortisol synthesis in V79 cells; assay type: cell-based; details: V79 cells expressing human CYP11B1, 1500 nM RSS, cortisol HTRF
T6 construct: expressed in transfected cells
T6 sequence (P15538 25-503): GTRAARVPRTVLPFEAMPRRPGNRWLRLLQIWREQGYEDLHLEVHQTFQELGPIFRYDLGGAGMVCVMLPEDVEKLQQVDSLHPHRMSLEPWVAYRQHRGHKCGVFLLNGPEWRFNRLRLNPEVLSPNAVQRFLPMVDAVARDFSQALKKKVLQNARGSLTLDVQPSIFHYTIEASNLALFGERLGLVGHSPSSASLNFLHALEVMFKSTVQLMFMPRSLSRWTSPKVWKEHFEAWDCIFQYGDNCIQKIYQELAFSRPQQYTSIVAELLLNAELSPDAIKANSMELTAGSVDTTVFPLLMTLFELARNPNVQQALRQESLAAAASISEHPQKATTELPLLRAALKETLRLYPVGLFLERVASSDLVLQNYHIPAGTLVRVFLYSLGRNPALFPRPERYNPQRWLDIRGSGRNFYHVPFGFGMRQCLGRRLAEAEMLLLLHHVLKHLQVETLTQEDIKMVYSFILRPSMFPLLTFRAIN
Description: (§4) This assay was performed in a standard 384-well plate design using cultured V79 cells stably expressing human CYP11B1 or human CYP11B2. Test compounds at 10 concentrations (for example, 10000, 3333.3, 1111.1, 370.4, 123.5, 41.2, 13.7, 4.6, 1.5 and 0.5 nM) were added in 384-well plate after the cell-seeding procedure. The incubation substrate contains 1500 nM RSS for CYP11B1 assay/750 nM DOC for CYP11B2 assay. The Cortisol/Aldosterone production of cell culture supernatant was determined by Cortisol/Aldosterone HTRF kit after for about 15 hours incubation at RT (protect from light). IC50 (nM) values were calculated from the percent inhibition observed for each test compound at 10 concentrations.
(§5) The assay plate was read using Envision (Perkin Elmer, Waltham, Mass.) at 665 nm and 590 nm (using Filter Barcode of 217#, 205#; Mirror Barcode of 446#).
(§6) Data are analyzed using Assay Data Analyzer. All ratio data (665 nm/590 nm) are back calculated according to the standard curve, resulting in Cortisol/Aldosterone concentrations. IC50 (nM) values are reported as the Inflection Point (IP) of a four parameter fit of the titration data.
(§7) The following equation was used to calculate the % inhibition: % Activity=100×{1−(Sample_back calculated Cortisol/Aldosterone concentration−LC_back calculated Cortisol/Aldosterone concentration)/(HC_back calculated Cortisol/Aldosterone concentration−LC_back calculated Cortisol/Aldosterone concentration)} Curve Fitting: Four Parameter Logistic: […]

human CYP11B2 = molecular target: T7, human CYP11B2 (Homo sapiens, UniProt P19099); assay: IC50 vs CYP11B2 by measurement of aldosterone synthesis in V79 cells; assay type: cell-based; details: V79 cells expressing human CYP11B2, 750 nM DOC, aldosterone HTRF
T7 construct: expressed in transfected cells
T7 sequence (P19099 25-503): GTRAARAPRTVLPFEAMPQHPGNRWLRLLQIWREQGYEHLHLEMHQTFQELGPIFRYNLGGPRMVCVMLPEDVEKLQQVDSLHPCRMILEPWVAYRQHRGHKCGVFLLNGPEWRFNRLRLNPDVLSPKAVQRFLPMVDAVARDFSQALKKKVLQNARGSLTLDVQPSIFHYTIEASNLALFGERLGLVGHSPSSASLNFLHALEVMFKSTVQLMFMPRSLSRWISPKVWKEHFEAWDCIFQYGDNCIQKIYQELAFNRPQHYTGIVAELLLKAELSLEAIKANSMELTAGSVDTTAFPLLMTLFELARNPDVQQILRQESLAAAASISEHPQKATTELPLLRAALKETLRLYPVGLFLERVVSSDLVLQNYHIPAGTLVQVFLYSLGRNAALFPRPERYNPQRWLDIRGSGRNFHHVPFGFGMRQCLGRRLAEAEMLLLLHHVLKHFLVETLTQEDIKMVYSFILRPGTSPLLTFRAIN
Description: as §4, §5, §6, §7

IC50 (CYP3A4) [µM]	IC50 (CYP1A2) [µM]	IC50 (CYP2C9) [µM]	IC50 (CYP2C19) [µM]	IC50 (CYP2D6) [µM]	IC50 (human CYP11B1) [µM]	IC50 (human CYP11B2) [µM]	SMILES
0.0053	> 10	> 10	> 10	8.08	26.9	> 50	C[C@@H](c1ccccc1-c1ccc(F)cc1)n1cncc1C(=O)N1CCC2NC(=O)CO[C@@H]2C1 (mixture of isomers) [Compound 50]
0.0073	> 10	> 10	> 10	4.05	37.4	> 50	C[C@@H](c1ccccc1-c1ccc(F)cc1)n1cncc1C(=O)N1CCCC(N2CCC(C)(O)CC2)CC1 (single isomer, unassigned) [Compound 3a]
0.0066	> 10	> 10	> 10	2.39	12.6	42.6	C[C@@H](c1ccccc1-c1ccc(F)cc1)n1cncc1C(=O)N1CCCC(N2CCC(C)(O)CC2)CC1 (single isomer, unassigned) [Compound 3b]
0.0068	> 10	> 10	> 10	6.55	33.5	> 50	C[C@@H](c1ccccc1-c1ccc(F)cc1)n1cncc1C(=O)N1CCC(N2CCC(O)CC2)CC1 [Compound 1]
0.005	> 10	> 10	> 10	> 10	24.3	31	C[C@@H](c1ccccc1-c1ccc(F)cc1)n1cncc1C(=O)N1CC[C@@H](N2CCC(O)CC2)[C@@H](F)C1 [Compound 2]
0.0058	> 10	> 10	> 10	4.87	13.9	> 50	C[C@@H](c1ccccc1-c1ccc(F)cc1)n1cncc1C(=O)N1CC[C@H]2NCCO[C@@H]2C1 [Compound 4]
0.0061	> 10	> 10	7.57	≥ 10	42.6	> 50	C[C@@H](c1ccccc1-c1ccc(F)cc1)n1cncc1C(=O)N1CCn2c(nnc2C2CC2)C1 [Compound 5]
0.0089	> 10	> 10	> 10	> 10	29.7	> 50	C[C@@H](c1ccccc1-c1ccc(F)cc1)n1cncc1C(=O)N1CCN2C[C@H](O)C[C@H]2C1 [Compound 6, (1-((S)-1-(4′-fluoro-[1,1′-biphenyl]-2-yl)ethyl)-1H-imidazol-5-yl)((7R,8aS)-7-hydroxyhexahydro-pyrrolo[1,2-a]pyrazin-2(1H)-yl)methanone]
0.0057	> 10	> 10	> 10	> 10	45.5	> 50	CCc1nnc2n1CCN(C(=O)c1cncn1[C@@H](C)c1ccccc1-c1ccc(F)cc1)C2 [Compound 7, (S)-(3-ethyl-5,6-dihydro-[1,2,4]triazolo[4,3-a]pyrazin-7(8H)-yl)(1-(1-(4′-fluoro-[1,1′-biphenyl]-2-yl)ethyl)-1H-imidazol-5-yl)methanone]
0.0066	> 10	> 10	> 10	6.63	24.9	> 50	C[C@@H](c1ccccc1-c1ccc(F)cc1)n1cncc1C(=O)N1CCC(N2CCCC(C)(O)C2)CC1 (stereo partly drawn) [Compound 9]
0.005	> 10	> 10	> 10	5.91	> 50	> 50	CO[C@H]1CN(C2CCN(C(=O)c3cncn3[C@@H](C)c3ccccc3-c3ccc(F)cc3)CC2)CC[C@@H]1O [Compound 10]

SMILES	IC50 (CYP3A4) [µM]	IC50 (CYP1A2) [µM]	IC50 (CYP2C9) [µM]	IC50 (CYP2C19) [µM]	IC50 (CYP2D6) [µM]	IC50 (human CYP11B1) [µM]	IC50 (human CYP11B2) [µM]
C[C@@H](c1ccccc1-c1ccc(F)cc1)n1cncc1C(=O)N1CCC(N2CCC[C@H](O)C2)CC1 [Compound 8]	0.0056	> 10	> 10	> 10	> 10	21	> 50
